Assay results published in PMC10828691 (Heliyon, 2024).
Where two headings read alike, the source gives them in different places.

How the values were obtained:
[1] = biological target: human placental alkaline phosphatase (hPAP) (Homo sapiens, UniProt P05187); experiment: Alkaline phosphatase inhibition assay; format: biochemical
[2] = test system: tissue nonspecific alkaline phosphatase (TNAP); details: relative expression of control without drugs = 1.0

Sequence of human placental alkaline phosphatase (hPAP) (P05187 23-535): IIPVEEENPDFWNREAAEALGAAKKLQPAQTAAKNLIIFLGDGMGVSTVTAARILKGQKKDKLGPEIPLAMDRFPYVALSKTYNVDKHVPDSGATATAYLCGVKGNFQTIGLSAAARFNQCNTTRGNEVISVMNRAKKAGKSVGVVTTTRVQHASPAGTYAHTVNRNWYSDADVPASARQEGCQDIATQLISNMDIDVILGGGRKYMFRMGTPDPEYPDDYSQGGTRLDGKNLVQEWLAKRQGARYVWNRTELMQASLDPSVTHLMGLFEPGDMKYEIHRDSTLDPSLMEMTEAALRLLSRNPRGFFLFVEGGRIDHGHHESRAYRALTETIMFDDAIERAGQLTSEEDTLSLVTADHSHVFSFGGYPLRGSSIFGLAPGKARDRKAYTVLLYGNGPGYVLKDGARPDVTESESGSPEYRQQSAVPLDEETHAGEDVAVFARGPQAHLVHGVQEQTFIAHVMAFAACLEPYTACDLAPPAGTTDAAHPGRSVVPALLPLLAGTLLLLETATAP

| IC50 [1] [µM] | Compound | TNAP Down-regulation ([2]; MCF-7, 5 μM) [fold] | TNAP Down-regulation ([2]; MCF-7, 10 μM) [fold] |
| --- | --- | --- | --- |
| 17.5 ± 0.19 | CC(C)(O)c1ccccc1CC[C@@H](SCC1(CC(=O)O)CC1)c1cccc(/C=C/c2ccc3ccc(Cl)cc3n2)c1 [Montelukast, (R,E)-2-(1-(((1-(3-(2-(7-chloroquinolin-2-yl)vinyl)phenyl)-3-(2-(2-hydroxypropan-2-yl)phenyl)propyl)thio)methyl)cyclopropyl) acetic acid] | 0.27 | – |
| – | c1ccc([C@H]2CN3CCSC3=N2)cc1 [Levamisole] | – | 0.26 |
